# Measurements: PubChem BioAssay (NCI)
# Several values for one entry are separate records, joined by “and”; a condition that tells them apart may be missing. Equal entries are not always repeated.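 Cultured in 96-well plates, cells were exposed to test compound for 48 hours across five concentrations. The concentration for 50% growth inhibition is given as GI50. The concentration for full growth arrest is given as TGI.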
# Experiments:
# Experiment in all cases: inhibition of tumour cell growth, NCI panel, 48 h
# A498 renal = system: A498 renal
# HOP-92 NSCLC = system: HOP-92 NSCLC
# IGROV1 ovarian = system: IGROV1 ovarian
# K-562 leukemia = system: K-562 leukemia
# M14 melanoma = system: M14 melanoma
# NCI-H522 lung = system: NCI-H522 lung
# NCI/ADR-RES ovarian = system: NCI/ADR-RES ovarian
# OVCAR-4 ovarian = system: OVCAR-4 ovarian
# SNB-19 CNS = system: SNB-19 CNS
# UACC-257 melanoma = system: UACC-257 melanoma
SMILES,GI50 (A498 renal),TGI (A498 renal),GI50 (HOP-92 NSCLC),TGI (HOP-92 NSCLC),TGI (IGROV1 ovarian),GI50 (K-562 leukemia),TGI (K-562 leukemia),GI50 (M14 melanoma),TGI (M14 melanoma),GI50 (NCI-H522 lung),TGI (NCI-H522 lung),GI50 (NCI/ADR-RES ovarian),TGI (NCI/ADR-RES ovarian),GI50 (OVCAR-4 ovarian) [µM],TGI (OVCAR-4 ovarian),GI50 (SNB-19 CNS),TGI (SNB-19 CNS),GI50 (UACC-257 melanoma),TGI (UACC-257 melanoma),GI50 (IGROV1 ovarian)
COc1cc(O)c2c(c1)C(=O)c1cc3c(c(O)c1C2=O)C(OC1OC(C)C(O)C(O)C1OC)C(OC)C(C)(O)C3=O (centres undefined),1.58 µM,3.13 µM and 5.31 µM,2 µM,8.49 µM and 1.81 µM,7.16 µM,2.24 µM and 12.2 µM,> 100 µM and 72.5 µM,1.69 µM,3.65 µM,2.18 µM,6.7 µM and 9.45 µM,2.86 µM,15.8 µM and 11 µM,1.7,8.04 µM and 2.64 µM,2.42 µM,8.9 µM and 15.5 µM,1.98 µM,5.25 µM and 2.5 µM,
C[C@H](CCCNCCCNCCCN)[C@H]1CC[C@H]2[C@@H]3[C@H](OCCCN)C[C@H]4C[C@H](OCCCN)CC[C@]4(C)[C@H]3C[C@H](OCCCN)[C@]12C,> 100 µM,> 100 µM,0.584 µM,11.9 µM,8.86 µM,0.458 µM,3.6 µM,0.874 µM,3.88 µM,11.1 µM,58.6 µM,4.75 µM,69.3 µM,> 45.2,> 100 µM,1.92 µM,> 83.4 µM,9.63 µM,59.5 µM,0.421 µM
O=c1c2c3c(sc2nc(N/N=C/c2ccc(Br)cc2)n1Cc1ccccc1)CCCC3,> 100 µM,> 100 µM,8.63 µM,> 100 µM,> 100 µM,4.1 µM,> 100 µM,9.15 µM,> 100 µM,7.21 µM,> 100 µM,> 100 µM,> 100 µM,9.67,> 100 µM,41.8 µM,> 100 µM,> 100 µM,> 100 µM,58.7 µM
O=C(NN=C1CCCCC1)c1[nH]c2ccc(F)cc2c1-c1ccccc1,38.1 µM,> 100 µM,50.9 µM,> 100 µM,> 100 µM,5.91 µM,26.6 µM,,,44.1 µM,> 100 µM,23.7 µM,86.1 µM,16.9,69.4 µM,47.3 µM,> 100 µM,59.1 µM,> 100 µM,65.9 µM
CC(=O)Oc1cc2c(OC(C)=O)c(-c3c(C)cc4c(C(C)C)c(OC(C)=O)c(OC(C)=O)cc4c3OC(C)=O)c(C)cc2c(C(C)C)c1OC(C)=O,4.91 µM and 4.51 µM and 11.5 µM,10 µM and 11.7 µM and 37.3 µM,1.27 µM and 7.69 µM and 5.33 µM,4.11 µM and 18 µM and 16.7 µM,33.9 µM and 9.86 µM and 57.5 µM,21.3 µM and 6.13 µM and 9.67 µM,63.1 µM and > 21.4 µM and 25.8 µM,6.75 µM and 5.89 µM and 8.15 µM,18.5 µM and 12.5 µM and 19.3 µM,5.15 µM and 1.52 µM and 5.49 µM,10.5 µM and 3.23 µM and 11.5 µM,7.87 µM and 8.95 µM and 20 µM,33.1 µM and 32.7 µM and > 55.3 µM,,32 µM and > 69.6 µM and > 84.2 µM,15.3 µM and 8.77 µM and 19.6 µM,> 31.7 µM and 25.2 µM and 47.5 µM,5.23 µM and 2.58 µM and 8.39 µM,14.4 µM and 10.5 µM and 25.6 µM,16.2 µM and 3.27 µM and 25.8 µM
O=c1c2ccccc2c2ccccc2c(=O)n1Cc1ccc2c(c1)OCO2,,> 100 µM,,> 100 µM,> 100 µM,,> 28 µM,,> 100 µM,,> 100 µM,,> 75.7 µM,,> 100 µM,,> 100 µM,,> 100 µM,
COc1cnc2c(c1)C(=O)c1c-2n(CCCNC(C)C)c(=O)c2cc(F)ccc12,0.199 µM,0.811 µM,0.284 µM,2.54 µM,1.92 µM,0.129 µM,1.72 µM,0.23 µM,1.3 µM,0.0385 µM,0.376 µM,0.234 µM,1.81 µM,0.301,1.7 µM,0.179 µM,1.32 µM,0.47 µM,2.07 µM,0.206 µM
O=C(NO)c1ccc(Cn2c(=O)n(-c3ccccc3F)c(=O)c3ccccc32)cc1,1.02 µM,2.57 µM,1.77 µM,4.75 µM,,2.62 µM,> 100 µM,1.53 µM,3.05 µM,0.542 µM,2.05 µM,2.54 µM,43 µM,1.9,12.9 µM,2.54 µM,18.2 µM,1.25 µM,3.22 µM,
CCCCCCCCCCCCOC1C(C(CC(=O)N2CCN(c3cccc(C(F)(F)F)c3)CC2)NS(=O)(=O)c2cc(Cl)cc(Cl)c2)OC2OC(C)(C)OC21 (centres undefined),> 100 µM,> 100 µM,> 100 µM,> 100 µM,> 100 µM,> 100 µM,> 100 µM,> 100 µM,> 100 µM,> 100 µM,> 100 µM,> 100 µM,> 100 µM,> 100,> 100 µM,> 100 µM,> 100 µM,> 100 µM,> 100 µM,> 100 µM
Cc1cc(O)cc(C)c1/C=C/c1cncc(-c2nn[nH]n2)c1,> 25 µM,> 25 µM,> 25 µM,> 25 µM,> 25 µM,> 25 µM,> 25 µM,> 25 µM,> 25 µM,> 25 µM,> 25 µM,> 25 µM,> 25 µM,> 25,> 25 µM,> 25 µM,> 25 µM,> 25 µM,> 25 µM,> 25 µM
CCOC(=O)/C(=C(/C)NCC(C)C)c1cc(O)c(O)c2c(C)cc(=O)[nH]c12,8.31 µM,29.7 µM,9.51 µM,45 µM,> 100 µM,6.8 µM,> 100 µM,4.53 µM,> 100 µM,3.02 µM,51.6 µM,2.42 µM,95.7 µM,2.62,50 µM,13.8 µM,> 100 µM,14.3 µM,> 100 µM,9.21 µM
O=C(NCc1ccco1)c1ccc(NC2=C(Cl)C(=O)N(Cc3ccccc3)C2=O)cc1,29.6 µM,62.5 µM,17.7 µM,36 µM,35.2 µM,21.2 µM,49.7 µM,15.1 µM,28.4 µM,19.5 µM,57.9 µM,18.3 µM,39.5 µM,51.3,> 100 µM,21.3 µM,45.6 µM,28.9 µM,80.8 µM,2.12 µM
